The values that follow are results of earlier work, collected in patent US4716040A, “Controlled absorption methyldopa pharmaceutical formulation” (Elan Corporation P.L.C., priority 1983, dated 1987).

Data set [1] concerns hypertension.
Data set [2] has as its system decarboxylation of dopa to dopamine.

In the case of `C[C@](N)(Cc1ccc(O)c(O)c1)C(=O)O` [methyldopa, 3-hydroxy-α-methyl-L-tyrosine], for the setting “of the methyldopa eliminated in the urine”, the “unchanged methyldopa in urine” value was “about 25%”. Moreover, under “oral”, the “fraction of oral dose absorbed” value is “about one half”. Besides, the metabolites in urine result (remainder of the methyldopa eliminated in the urine) is given as “mainly a mono-O-sulphate of methyldopa”. Moreover, in data set [1] (methyldopa therapy), the oedema entry was “sometimes observed”. Moreover, the “effect on standing and supine blood pressure” value in data set [1] (moderate to severe hypertension) was “reducing the standing blood pressure and also reduces the supine blood pressure”. In data set [1] (oral), the “maximum hypotensive effect may not occur until” value is reported as “second day of treatment”, the “onset of effects after oral administration” value was “about 2 hours” and the “some effect still usually apparent after a dose” value was 24 h. Further, the “decarboxylation of dopa to dopamine” value in data set [2] is “inhibits”.
